Assay results published in patent US4158018A, “3-Oxa carbinol prostaglandin analogs” (Miles Laboratories, Inc., priority 1978, dated 1979).

What was measured:
[1] = test system: Gastric Secretion of the Rat; assay: Effects on gastric secretion of the rat (pylorus ligated); assay type: in vivo; details: for Gastric Secretion (value judgement, % decrease in acidity): subcutaneous, 2 x 1.5 mg/kg (total 3.0 mg/kg), 4 hours after pyloric ligation
Protocol: Evaluation of the Effects of Prostaglandin Analogues on Gastric Secretion of the Rat
A procedure based on that described by Lipmann (1969) is used to assess the influence of test compound on gastric secretion. Rats of one sex weighing 150 to 200 gm are randomly divided into groups of six animals each and fasted for 48 hours previous to the experiments, water being available ad libitum. The animals are anesthetized with ether, the abdomen opened through a midline incision, and the pylorus ligated. Test compounds are diluted from stock solution so as to administer a dose of 1.5 mg/kg in a volume equivalent to 1 ml/kg. Subcutaneous injections are applied immediately after surgery and again 2 hours later, so that a total dose of 3.0 mg/kg is administered. Dilutions are made with phosphate buffer (pH 7.38) as recommended by Lee et al (1973), in order to insure adequate stability of drugs at the subcutaneous depot. Each compound is tested in one group of rats; an additional control group received only one vehicle.
Four hours after pyloric ligation the animals are killed with ether, the cardias ligated and the stomachs removed. The volume of gastric secretion is measured and the contents centrifuged at 5000 rpm for 10 minutes. Total acid in the supernatant is titrated against a 0.1 N sodium hydroxide solution and the amount expressed in mEq.
Volume and total acid values of the treated group are compared with those of the controls by the test. Antisecretory activity is scored according to the following scale: […]

Hypertensive Rat = assay: Effects on blood pressure in the hypertensive rat (Grollman); assay type: in vivo; design: key: 0: Not significant at any time interval; 1: Significant at one time interval; 2: Significant at two time intervals; 3: Significant at three time intervals; 4: Significant at all four time intervals; details: intraperitoneal, 1 mc/kg; 2, 4, 6 and 8 hours
Protocol: Evaluation of the Effects of Prostaglandin Analogues on Blood Pressure in the Hypertensive Rat
The acute antihypertensive activity of test compounds is determined in rats made hypertensive by the procedure of Grollman (1944). Female rats weighing between 60 and 100 g are anesthetized with ether, the right kidney approached through a flank retroperitoneal incision, decapsulated and tied with a figure-of-eight ligature. The animals are left to recover and two weeks later are again anesthetized and the contralateral kidney removed. Four weeks after the second operation the rats are subjected to indirect blood pressure measurements and those showing systolic pressure values greater than 160 mmHg are selected for drug testing.
Blood pressure is measured in the tail with an inflatable occluding cuff placed at the base of the extremity and a pulse detector located distally. The cuff is inflated to approximately 300 mmHg and is slowly deflated until pulsations appear, indicating the level of systolic pressure; diastolic pressure is not recorded by this procedure. All measurements are carried out in unanesthetized, unsedated animals maintained in a warm environment during the recording procedure and for at least 6 hours before. In all cases, three pressure readings are obtained in succession and mean values are calculated thereof.
Experiments are carried out in groups of five hypertensive rats in which systolic pressure is determined immediately before and 2, 4, 6 and 8 hours after the intraperitoneal administration of the test compound at a dose of 1 mc/kg. Drugs are diluted from stock solutions with phosphate buffer (Lee et al, 1973), so as to inject this quantity in a volume of 1 ml/kg. Changes from control blood pressure values are calculated for each interval both in mmHg and in percent and evaluated for significance by means of Wilcoxon's signed rank test (Wilcoxon and Wilcox, 1964).

growth hormone release = details: rats; cited from earlier work
[2] = test system: ovarian progesterone secretion; details: sheep; cited from earlier work
thyroid activity = details: mice; cited from earlier work
adrenal glands = details: hypophysectomized rats; cited from earlier work
[3] = test system: smooth muscle of the vas deferens; details: mammalian male reproductive system; cited from earlier work
gastric secretion = details: dogs; cited from earlier work
blood platelets = details: in vitro; cited from earlier work

Q: For `O=C1CC(O)C(/C=C/[C@H](O)C2CCCCC2)C1CCCCOCCO` (stereo partly drawn) [TR-4856, 16,20-methano-3-oxa-1,11α,15R-trihydroxyprost-13E-en-9-one], which “Gastric Secretion (value judgement, % decrease in acidity)” value [1] is on record?
A: 0 (<26)

Q: What about the “Blood Pressure Hypertensive Rat (value judgement, blood pressure decrease)” value (Hypertensive Rat) of the same molecule?
A: 2

Q: With “16,20-methano-oxa-1,11β,15R-trihydroxy- 8,12-bisisoprost-13E-en-9-one [TR-4853]” as the molecule, how does the “Gastric Secretion (value judgement, % decrease in acidity)” value [1] read?
A: 0 (<26)

Q: Which “Gastric Secretion (value judgement, % decrease in acidity)” value [1] does the source give for `CCCCC[C@H](O)/C=C/[C@H]1[C@H](CCCCOCCO)C(=O)C[C@@H]1O` [TR-4649, 3-oxa-1,11β,15S-trihydroxy-8,12-bisisoprost-13E-en-9-one] here?
A: 0 (<26)

Q: Which results are given for `CCCCC[C@H](O)/C=C/[C@H]1[C@H](O)CC(=O)[C@@H]1CCCCOCCO` [TR-4650, 3-oxa-1,11α,15S-trihydroxyprost-13E-en-9-one]?
A: Gastric Secretion (value judgement, % decrease in acidity) [1]: 0 (<26); Blood Pressure Hypertensive Rat (value judgement, blood pressure decrease) (Hypertensive Rat): 1

Q: For `CCCCC(C)(C)[C@@H](O)/C=C/[C@H]1[C@H](O)CC(=O)[C@@H]1CCCCOCCO` (relative stereo) [TR-4617, ±16,16-dimethyl-3-oxa-1,11α,15R and S-trihydroxyprost-13E-en-9-one], which “Gastric Secretion (value judgement, % decrease in acidity)” value [1] is on record?
A: 0 (<26)

Q: And the “Blood Pressure Hypertensive Rat (value judgement, blood pressure decrease)” value (Hypertensive Rat)?
A: 1

Q: With `CCCCC[C@H](O)/C=C/[C@H]1[C@H](O)CC(=O)[C@@H]1CCCCCCC(=O)O` [PGE1, prostaglandin E1] as the molecule, how does the “release of growth hormone” value (growth hormone release) read?
A: increases the release of growth hormone

Q: What about the ovarian progesterone secretion [2] of the same molecule?
A: inhibit ovarian progesterone secretion

Q: What about the thyroid activity (thyroid activity) of the same molecule?
A: increase thyroid activity

Q: What about the “stereodogenesis in the adrenal glands” value (adrenal glands) of the same molecule?
A: stimulate stereodogenesis in the adrenal glands

Q: And the “contraction of smooth muscle of the vas deferens” value [3]?
A: contracts the smooth muscle of the vas deferens

Q: What about the gastric secretion (gastric secretion) of the same molecule?
A: inhibits gastric secretion

Q: And the “aggregation of blood platelets” value (blood platelets)?
A: inhibits aggregation of blood platelets in vitro

Q: What does the source list for `CCCCC(C)(C)[C@H](O)/C=C/[C@H]1[C@H](O)CC(=O)[C@@H]1CCCCOCCO` (relative stereo) [TR-4616, ±16,16-dimethyl-3-oxa-1,11α,15R and S-trihydroxyprost-13E-en-9-one]?
A: inhibition of gastric acid secretion (in words) ([1]; rat, in vivo): inhibit gastric acid secretion; Gastric Secretion (value judgement, % decrease in acidity) [1]: 2 (26-50, significant); Blood Pressure Hypertensive Rat (value judgement, blood pressure decrease) (Hypertensive Rat): 0
